From patent publication US20090215895A1, “Therapeutic and carrier molecules” (PEPLIN BIOLIPIDS PTY LTD, priority 2004, published 2009)
Entries after “also recorded” stand apart in the source; their conditions may differ.

Columns and labels:
[1] = Tissue distribution after oral administration; format: in vivo
[2] = test system: HUVEC; experiment: Agonist-enhanced neutrophil adherence to HUVEC; format: cell-based, human; details: 20 μmol/l, 1 hr pre-treatment, TNF 4 hr
Procedure: FIG. 11 is a representation showing effect of β-oxa; β-thia and natural PUFA on TNF-enhanced neutrophil adherence to HUVEC. HUVEC were pre-treated with the fatty acids (20 μmol/l) for 60 min at 37° C. before being stimulated with TNF (125 U/200 μl medium) for 4 hr at 37° C. The cells were then co-incubated with neutrophils (5×10^5 cells/well) at 37° C. for 30 min and the degree of neutrophil adherence quantitated. The results are expressed as % of control and represent the mean±SEM of three separate experiments each performed in triplicate. * p<0.05, ***p<0.001, for significant differences between pre-treatment with fatty acid and control (one-way analysis of variance followed by the Dunnett test for multiple comparisons).
Adhesion of neutrophils, prepared by the rapid-single-step method (Ferrante et al, J. Immun. Methods 36:109-117, 1980), to HUVEC isolated from umbilical cords was carried out essentially as described (Huang et al, 1997 supra).
The magnitude of the suppressive effect of -MP3 was dependent on-pre-treatment time and concentration with significant effects observed with a pre-treatment time of 1 hr and a concentration of ≧5 μmol/l.

[3] = target: T1, PKCε (Homo sapiens, UniProt Q02156); experiment: PKC translocation in Jurkat cells; format: cell-based
T1 construct: endogenous in cells; host or cells: Jurkat
T1 sequence (Q02156 whole entry): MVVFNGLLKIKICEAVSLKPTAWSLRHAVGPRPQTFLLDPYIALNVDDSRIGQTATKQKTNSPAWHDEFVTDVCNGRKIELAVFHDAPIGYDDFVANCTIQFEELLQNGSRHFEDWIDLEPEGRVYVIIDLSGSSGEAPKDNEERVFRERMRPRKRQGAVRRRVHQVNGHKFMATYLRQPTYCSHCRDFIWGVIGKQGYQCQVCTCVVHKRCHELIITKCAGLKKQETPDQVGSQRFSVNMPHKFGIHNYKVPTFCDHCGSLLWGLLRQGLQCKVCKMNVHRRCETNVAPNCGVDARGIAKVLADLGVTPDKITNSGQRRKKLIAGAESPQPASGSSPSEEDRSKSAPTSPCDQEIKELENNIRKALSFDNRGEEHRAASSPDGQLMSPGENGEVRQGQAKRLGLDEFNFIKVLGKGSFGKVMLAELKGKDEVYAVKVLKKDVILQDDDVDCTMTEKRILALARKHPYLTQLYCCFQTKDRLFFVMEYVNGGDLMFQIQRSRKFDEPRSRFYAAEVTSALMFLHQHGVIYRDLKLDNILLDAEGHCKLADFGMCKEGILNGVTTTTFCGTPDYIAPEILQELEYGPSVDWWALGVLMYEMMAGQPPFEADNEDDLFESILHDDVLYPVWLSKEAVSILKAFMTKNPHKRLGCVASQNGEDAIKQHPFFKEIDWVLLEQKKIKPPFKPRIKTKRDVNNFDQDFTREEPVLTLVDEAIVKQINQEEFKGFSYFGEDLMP
Text: (§1) MP5 had minimal effects (<15%) on PKCε translocation and no effects on the translocation of the other PKC isozymes in Jurkat cells.

[4] = test system: other PKC isozymes; experiment: PKC translocation in Jurkat cells; format: cell-based
Text: as §1

[5] = test system: PKCβI; experiment: PKCβ1 translocation in glucose-stimulated mesangial cells (Western blot); format: cell-based; details: 1 hr pre-treatment, 25 mM glucose 5 days
Procedure: (§2) FIG. 9 is a diagrammatic representation showing the suppression of PKCβ1 translocation in glucose-stimulated mesangial cells (a) and in the glomeruli of a diabetic rat (b). Mesangial cells were pre-treated with MP5 or vehicle (ethanol) for 1 hr before being incubated with 25 mM glucose for 5 days. Male rats were rendered diabetic with streptozotocin and MP5 or vehicle (ethanol) was administered for 7 days after confirmation of diabetes. The cells and glomeruli were sonicated and particulate fraction-associated PKCβ1 was determined by Western blot analysis. High glucose and diabetes increased PKCβ1 in the particulate fraction.
Mesangial cells are prepared as previously described (Couper et al, 1994 supra).
Four groups of cells were set up: 5.5 mM glucose+ethanol (0.1% w/v or v/v), 5.5 mM glucose+MP5 (20 μM which is effective in the studies), 25 mM glucose+ethanol and 25 mM glucose+MP5. […] Cells were pre-incubated (30 min-24 h) with MP5 before being challenged with glucose for 4 days. […] Cells are then be washed, sonicated and the amount of each PKC isozyme in the particulate fraction determined by Western blot analysis. The soluble fractions were kept for estimation of soluble PKC (non-particulate fraction-associated). […] The cells remained viable throughout the period of study as judged by the trypan blue exclusion test. […]

[6] = target: T2, PKCβII (Homo sapiens, UniProt P05771); experiment: PMA-stimulated PKC translocation to the particulate fraction in HUVEC and other cell-types; format: cell-based
T2 construct: endogenous in cells; host or cells: HUVEC (and unnamed other cell-types)
T2 sequence (P05771 1-673 isoform P05771-2): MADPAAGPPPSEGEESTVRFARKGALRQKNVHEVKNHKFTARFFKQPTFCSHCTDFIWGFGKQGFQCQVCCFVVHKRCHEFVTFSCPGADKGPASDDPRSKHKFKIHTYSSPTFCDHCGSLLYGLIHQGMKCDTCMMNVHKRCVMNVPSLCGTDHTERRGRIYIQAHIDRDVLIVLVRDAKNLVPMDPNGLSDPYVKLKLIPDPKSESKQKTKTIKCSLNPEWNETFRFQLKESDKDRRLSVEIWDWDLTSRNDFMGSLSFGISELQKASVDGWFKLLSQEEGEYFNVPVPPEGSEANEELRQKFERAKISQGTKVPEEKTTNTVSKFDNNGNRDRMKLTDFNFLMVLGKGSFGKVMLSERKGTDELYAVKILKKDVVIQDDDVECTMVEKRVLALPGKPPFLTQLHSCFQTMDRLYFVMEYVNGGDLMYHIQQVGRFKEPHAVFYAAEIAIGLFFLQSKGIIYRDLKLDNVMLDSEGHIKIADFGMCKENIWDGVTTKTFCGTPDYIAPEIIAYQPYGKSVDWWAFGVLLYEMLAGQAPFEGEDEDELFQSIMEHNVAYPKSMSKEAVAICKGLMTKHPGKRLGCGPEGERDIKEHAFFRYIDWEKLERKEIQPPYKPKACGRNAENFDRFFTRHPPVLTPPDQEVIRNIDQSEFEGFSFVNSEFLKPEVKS
Procedure: as §1
Mesangial cells express PKCα, βI, ε, δ and ζ (Koya et al, 1997 supra, Kikkawa et al, 1994 supra), and βII at lower levels (Koya et al, 1997 supra). To examine the effect of MP5 on the ability of other PKC isozymes in mesangial cells to translocate to the particulate fraction, the cells were pre-treated with MP5 before being stimulated with PMA (1-100 nM). This agent stimulated the translocation of all the classical and novel isozymes. […] The studies were extended to other isozymes. For PKCγ (expressed mainly by neuronal cells), the effect of MP5 are tested using PMA-stimulated PC12 rat pheochromocytoma cells. To assess the effect of MP5 on the activation of atypical PKC isozymes such as PKCζ NIH3T3 cells were pre-treated with MP5 before being stimulated with tumour necrosis factor ? (1000 U/ml) which stimulates PKCζ activity in these cells (Lallena et al, 1999 supra). The isozyme were immunoprecipitated (antibody from Santa Cruz) and kinase activity was determined using a PKCε pseudosubstrate peptide or myelin basic protein as a substrate (Suzuma et al, 2002 supra).

[7] = target: T3, PKCβI (Homo sapiens, UniProt P05771); experiment: as above; format: cell-based
T3 construct: endogenous in cells; host or cells: HUVEC (and unnamed other cell-types)
T3 sequence (P05771 whole entry): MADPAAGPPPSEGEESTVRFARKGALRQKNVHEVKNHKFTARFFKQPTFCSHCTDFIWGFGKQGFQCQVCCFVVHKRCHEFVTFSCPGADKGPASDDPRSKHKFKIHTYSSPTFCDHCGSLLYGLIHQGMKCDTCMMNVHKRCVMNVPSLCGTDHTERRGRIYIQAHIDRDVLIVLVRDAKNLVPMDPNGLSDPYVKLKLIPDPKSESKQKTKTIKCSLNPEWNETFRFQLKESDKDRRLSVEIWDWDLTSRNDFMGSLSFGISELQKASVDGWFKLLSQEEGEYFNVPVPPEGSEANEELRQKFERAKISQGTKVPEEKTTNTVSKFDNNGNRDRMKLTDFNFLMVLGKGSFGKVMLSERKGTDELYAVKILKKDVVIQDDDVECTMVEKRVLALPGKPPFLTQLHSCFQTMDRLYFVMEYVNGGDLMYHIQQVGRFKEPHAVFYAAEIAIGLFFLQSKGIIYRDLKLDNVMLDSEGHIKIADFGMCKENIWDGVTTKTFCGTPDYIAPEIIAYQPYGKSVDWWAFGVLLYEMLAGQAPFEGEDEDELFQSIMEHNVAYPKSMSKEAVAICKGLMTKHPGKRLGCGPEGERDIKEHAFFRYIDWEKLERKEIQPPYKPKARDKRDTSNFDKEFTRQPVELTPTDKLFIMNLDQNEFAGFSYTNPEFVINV

[8] = Long term in vivo tolerability of MP5; set-up: species or system rats; details: up to 100 mg/kg
Procedure: as §1
The ability of MP5 to inhibit renal TGFβ production and albuminuria in streptozotocin-induced diabetic Sprague-Dawley rats were investigated. MP5 is non toxic to rats given at up to 100 mg/kg chronically as determined by liver and kidney biochemical and electrolyte markers. […] Animals (130-150 g) were placed randomly in one of five groups: control, MP5-treated, diabetic, diabetic+MP5 and diabetic+MP1. Power analysis ([…], β=0.1) (expecting at least a 50% reduction and an SD of 30% of mean) indicate that 7-8 animals/group were needed. The rats were rendered diabetic using streptozotocin (65 mg/kg. I.P) and blood glucose levels were measured 48 hr later to confirm the onset of diabetes (glucose>15 mM). […] Blood glucose was measured every week. […] At the end of the MP5 treatment period, rats were sacrificed and the level of TGFβ mRNA (Kikkawa et al 1994 supra) in the glomeruli were determined by slot blot analysis (Ferrante et al, 1997 supra) and normalized by comparison with the level of GAPDH (glyceraldehyde 3-phosphate dehydrogenase) mRNA in the same sample (Ferrante et al, 1997 supra). The amount of albumin in the urine were measured by using a commercial kit (EXOCELL Inc. Philadelphia, Pa.). […]

[9] = Formalin-induced pain test (hind paw licking time); format: in vivo
Procedure: Investigations of the effects of PT2 on pain induced by phenylquinolic acid (PQ writhing) and formalin have been made. In both the PQ writhing test (FIG. 3) and the formalin algesia test (FIG. 4), PT2 administered by intraperitoneal inoculation reduced pain and compared favourably with pain reduction by aspirin (oral, 100 mg/kg). In these tests, the EPUFA was administered 30 min before the pain stimulus and effects recorded over the following 20 min.
Investigations of PT2 in the formalin-induced analgesia model looking specifically at the biphasic response have also been undertaken and are shown in Table 1. It is well documented that in this model, aspirin suppresses only pain related to the inflammatory process (15-20 mins post-administration of formalin), while morphine suppresses pain in both phases of the response (0-5 min and 15-20 min).
Compounds were administered intraperationedly (ip) 30 min prior to the administration of formalin (0.02 ml, 1% solution) via subplantar injection into the right hind paw. Reduction of the induced hind paw licking time recorded during the following 0-5 min period (Phase I response) or 15-20 min period (Phase II response) was determined. The data in Table 1 are the mean responses of 5 animals in each group.

[10] = target: T4, PKCβI (Rattus norvegicus, UniProt P68403); experiment: PKCβ1 translocation in the glomeruli of streptozotocin-diabetic rats; format: in vivo; details: administered for 7 days after confirmation of diabetes
T4 construct: from tissue; host or cells: glomeruli of streptozotocin-diabetic male rats
T4 sequence (P68403 whole entry): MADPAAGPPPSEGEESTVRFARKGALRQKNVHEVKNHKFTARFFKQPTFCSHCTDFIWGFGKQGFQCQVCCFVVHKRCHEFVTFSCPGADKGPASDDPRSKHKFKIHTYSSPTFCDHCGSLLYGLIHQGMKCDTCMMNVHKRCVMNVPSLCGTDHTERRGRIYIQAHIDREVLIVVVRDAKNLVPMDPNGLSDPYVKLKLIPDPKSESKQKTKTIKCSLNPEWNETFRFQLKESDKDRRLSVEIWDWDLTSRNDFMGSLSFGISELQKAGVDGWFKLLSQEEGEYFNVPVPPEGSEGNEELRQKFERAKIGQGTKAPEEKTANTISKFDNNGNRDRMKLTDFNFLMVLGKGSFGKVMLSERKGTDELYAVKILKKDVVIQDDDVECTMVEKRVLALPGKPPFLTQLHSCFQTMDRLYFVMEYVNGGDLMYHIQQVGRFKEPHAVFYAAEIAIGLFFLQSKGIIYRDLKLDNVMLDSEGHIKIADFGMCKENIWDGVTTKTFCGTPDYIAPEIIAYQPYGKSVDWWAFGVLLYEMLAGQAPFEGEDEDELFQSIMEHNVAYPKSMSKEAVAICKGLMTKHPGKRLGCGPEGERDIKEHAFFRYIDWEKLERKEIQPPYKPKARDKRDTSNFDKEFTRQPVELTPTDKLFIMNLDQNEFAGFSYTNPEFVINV
Procedure: as §2

[11] = 100 mg/kg ip, 30 min prior to formalin, mean of 5 animals

SMILES: CC/C=C\C/C=C\C/C=C\CCCCCCCCOCC(=O)O [MP5, β-oxa-21:3n-3]
- Presence in blood, organs and tissues after oral administration [1]: present in the blood and various organs; also recorded: taken up by tissues, including kidneys, and incorporated into phospholipids
- Inhibition of TNF-α-enhanced neutrophil adhesion to HUVEC [2]: inhibited their ability to be stimulated
- Effect on PKCε translocation [3]: < 15%
- Effect on translocation of the other PKC isozymes [4]: no effects
- Translocation of PKCβI to a particulate fraction, glucose-stimulated mesangial cells [5]: prevent the translocation of PKCβI; also recorded: inhibited this effect
- PMA-stimulated translocation of PKCβII to the particulate fraction [6]: inhibited PMA-stimulated translocation
- PMA-stimulated translocation of PKCβI to the particulate fraction ([7]; HUVEC and other cell-types): inhibited PMA-stimulated translocation
- Selectivity between PKCβI and PKCβII ([7]; HUVEC, depending on the concentrations used): able to distinguish between PKCβI and PKCβII
- Liver and kidney function and electrolyte levels ([8]; chronic): no adverse effects on liver and kidney function and electrolyte levels; also recorded: non toxic
- Well-being of the animals (coat appearance, activity/mobility) ([8]; up to three months): no visible adverse effects
- % inhibition of pain response, Phase I (0-5 mins) [9, 11]: 34%
- % inhibition of pain response, Phase II (15-20 mins) [9, 11]: 37%
- Pain reduction in formalin test ([9]; intraperitoneal, 30 min before pain stimulus): much less effective in inhibiting pain
- Translocation of PKCβI to a particulate fraction, glomeruli of diabetic rats [10]: prevent the translocation of PKCβI; also recorded: inhibited this effect
